Our source for the viability and inhibition values is ChEMBL document CHEMBL4406843, “β-Amino acid derivatives as mitochondrial complex III inhibitors of L. donovani: A promising chemotype targeting visceral leishmaniasis” (Eur J Med Chem, 2019).

Series [1] in a line: Cytotoxicity against African green monkey Vero cells assessed as cell viability at 25 uM by MTT assay relative to control. The class given is cell-based. Particulars: chlorocebus sabaeus, read-out: Activity. On the technique in general: Formazan colour is commonly taken as a measure of viable cells.
Series [2] can be described thus: Cytotoxicity against African green monkey Vero cells assessed as cell viability at 50 uM by MTT assay relative to control. It is filed as cell-based. Particulars: chlorocebus sabaeus, read-out: Activity.
Series [3] in a line: Cytotoxicity against African green monkey Vero cells assessed as cell viability at 100 uM by MTT assay relative to control. The class given is cell-based. Particulars: chlorocebus sabaeus, read-out: Activity.
Series [4] deals with Leishmania donovani. Description: Antileishmanial activity against promastigote stage of Leishmania donovani MHOM/IN/80/Dd8 harboring luciferase reporter gene at 25 uM after 48 hrs by Steady-Glo luminescence assay relative to control. The class given is functional. The note with it: MHOM/IN/80/Dd8, 48 h. On the technique in general: In a reporter assay the amount or activity of a reporter protein is the signal.

The subject of series [5] is Leishmania donovani. Description: Antileishmanial activity against promastigote stage of Leishmania donovani MHOM/IN/80/Dd8 harboring luciferase reporter gene at 50 uM after 48 hrs by Steady-Glo luminescence assay relative to control. It is filed as functional. Particulars: MHOM/IN/80/Dd8, 48 h.
Series [6] relates to Leishmania donovani. Description: Antileishmanial activity against promastigote stage of Leishmania donovani MHOM/IN/80/Dd8 harboring luciferase reporter gene at 100 uM after 48 hrs by Steady-Glo luminescence assay relative to control. The class given is functional. Particulars: MHOM/IN/80/Dd8, 48 h.
The test system of series [7] is Leishmania donovani. Description: Antileishmanial activity against Leishmania donovani MHOM/IN/80/Dd8 amastigotes harboring luciferase reporter gene infected in mouse J774 cells at 25 uM after 72 hrs by Steady-Glo luminescence assay relative to control. It is filed as functional. Particulars: MHOM/IN/80/Dd8, J774, 72 h.
For series [8], the system named is Leishmania donovani. Description: Antileishmanial activity against Leishmania donovani MHOM/IN/80/Dd8 amastigotes harboring luciferase reporter gene infected in mouse J774 cells at 50 uM after 72 hrs by Steady-Glo luminescence assay relative to control. The class given is functional. Particulars: MHOM/IN/80/Dd8, J774, 72 h.
The subject of series [9] is Leishmania donovani. Description: Antileishmanial activity against Leishmania donovani MHOM/IN/80/Dd8 amastigotes harboring luciferase reporter gene infected in mouse J774 cells at 100 uM after 72 hrs by Steady-Glo luminescence assay relative to control. It is filed as functional. Particulars: MHOM/IN/80/Dd8, J774, 72 h.

Consider `CCOC(=O)C(C(=O)c1ccc(OC)cc1)C(NC(C)=O)c1ccc(C(C)(C)C)cc1` (configuration not stated), for which the viability at 25 µM in series [1] came to 94.5%. Moreover, the viability at 50 µM in series [2] came to 92.3%. The viability at 100 µM in series [3] stood at 89.5%. The inhibition at 25 µM is 40.2% in [4] and 40.5% in series [7]. Besides, the inhibition at 50 µM in [5] is 52.4%; in [8] it was 46.1%. The values for the inhibition at 100 µM in [6] and in [9] were 54.3% and 53.1%, respectively.
For `CCOC(=O)C(C(=O)c1ccc(OC)cc1)C(NC(C)=O)c1ccc(OC)c(OC)c1` (configuration not stated), the viability at 25 µM in series [1] stood at 99.1%. Also, the viability at 50 µM in series [2] is 96.7%. Further, in [3], the viability at 100 µM stood at 88.5%. Besides, the figures for the inhibition at 25 µM in series [4] and in [7] were 30.2% and 57.1%, respectively. Besides, the inhibition at 50 µM in series [5] was 35%; in series [8], 58.1%. The inhibition at 100 µM in series [6] amounted to 35.8%; in [9], 59.2%.
Regarding `CCOC(=O)C(C(=O)c1ccc(OC)cc1)C(NC(C)=O)c1cc(OC)c(OC)c(OC)c1` (configuration not stated), the viability at 25 µM in series [1] turned out to be 97.8%. Further, the viability at 50 µM in series [2] is 94.3%. Also, the viability at 100 µM in [3] was found to be 88.9%. Moreover, the inhibition at 25 µM in [4] worked out at 28.3%; in series [7] it was 25.4%. In addition, the inhibition at 50 µM in series [5] turned out to be 40.2%; in [8], 51.1%. For the same molecule, the inhibition at 100 µM in series [6] came out at 43.1%; in series [9], 51.3%.
Turning to `CSc1ccc(C(=O)C(c2ccc(Cl)c(Cl)c2)C(NC(=O)c2cccc(C)c2)c2cc3ccccc3s2)cc1` (configuration not stated), the viability at 25 µM in [1] is 92.1%. The viability at 50 µM in series [2] stood at 90.6%. The viability at 100 µM in series [3] was determined as 87.3%. Moreover, the inhibition at 25 µM in series [4] was 24.3%; in [7], 12%. Also, the inhibition at 50 µM in [5] turned out to be 30.4%; in series [8], 21.9%. For the same molecule, the inhibition at 100 µM was 35.1% in [6] and 27.2% in series [9].
As for `CSc1ccc(C(=O)C(c2ccc(Cl)c(Cl)c2)C(NC(=O)c2ccccc2)c2cc3ccccc3s2)cc1` (configuration not stated), the viability at 25 µM in series [1] is 97.2%. Also, the viability at 50 µM in [2] was 92.4%. For the same molecule, the viability at 100 µM in series [3] is 88%. Moreover, the inhibition at 25 µM in [4] came out at 22.4%; in series [7] it was 11.8%. In addition, the figures for the inhibition at 50 µM in series [5] and in series [8] were 30.5% and 16.5%, respectively. For the same molecule, the inhibition at 100 µM in series [6] amounted to 33.2%; in [9], 18.3%.
Regarding `CSc1ccc(C(=O)C(c2ccc(Cl)c(Cl)c2)C(NC(=O)c2ccc(Br)cc2)c2cccc3ccccc23)cc1` (configuration not stated), the viability at 25 µM in series [1] is 92.8%. Also, in series [2], the viability at 50 µM amounted to 90.2%. In addition, the viability at 100 µM in series [3] came to 88.5%. Also, the inhibition at 25 µM in series [4] came to 56.3%; in [7], 21.2%. The inhibition at 50 µM was 74.9% in series [5] and 38.3% in series [8]. The figures for the inhibition at 100 µM in [6] and in series [9] were 77.2% and 39.2%, respectively.
Turning to `CSc1ccc(C(=O)/C(=C/c2ccccn2)c2ccc(Cl)c(Cl)c2)cc1`, in series [1], the viability at 25 µM was 97.9%. In series [2], the viability at 50 µM came out at 93.6%. Moreover, the viability at 100 µM in series [3] is 89.6%. Besides, the inhibition at 25 µM in series [4] was determined as 53.4%; in series [7], 17.5%. The results for the inhibition at 50 µM in series [5] and in series [8] were 74.6% and 36.2%, respectively. In addition, the inhibition at 100 µM in [6] was determined as 76.6%; in series [9], 38.5%.
Turning to `CCOC(=O)C(C(=O)c1ccc(OC)cc1)C(NC(C)=O)c1ccc(C(C)C)cc1` (configuration not stated), the viability at 25 µM in [1] amounted to 98.8%. For the same molecule, the viability at 50 µM in [2] was 96.5%. The viability at 100 µM in series [3] turned out to be 90.4%. In addition, the inhibition at 25 µM in [4] was found to be 30.8%; in [7], 29.4%. Besides, the inhibition at 50 µM turned out to be 33.5% in series [5] and 44.4% in [8]. Besides, the inhibition at 100 µM in [6] was found to be 34%; in series [9], 55.3%.

One may read the inhibition as the relative decrease from the control value, in per cent.
